One assay deals with A. baumannii ATCC 17978. Format: cell-based, Acinetobacter baumannii. Particulars: spotted on MHA plate, 24 h. The protocol: Following CLSI guideline M07-A11, single bacterial colonies of A. baumannii ATCC 17978 grown on Müller–Hinton agar (MHA) plates were picked and inoculated in 4 mL of Müller–Hinton broth (MHB) at 37°C and shaken at 180 rpm for 4∼6 h. The bacterial broth was diluted in the same medium to give a cell density of 1∼2 × 10^8 CFU/mL (OD600 = 0.38∼0.4 for A. baumannii) (Supplementary Figure 1; [Dillon et al., 2020]). Then, the broth was diluted 20-fold. Peptides were dissolved in water and filtered through a 0.2-μm filter to make a stock solution. The peptide concentration was quantified by the UV280. Then, the peptide solution was serially diluted in MHB to final peptide concentrations of 1, 2, 4, 8, 16, and 32 μg/mL. One hundred microliters of serially diluted peptide and 10 μL of bacterial culture were mixed in a 96-well polystyrene plate. Each well contained approximately 5 × 10^5 CFU/mL. The positive control was a mixture of 100 μL of MHB and 10 μL of the bacterial culture. The negative control was 110 μL of MHB. The plates were incubated at 37°C without shaking. […] The bacterium-peptide mixtures (the mixture without visible growth and the mixture containing a two-fold […] peptide concentration than the mixture without growth), positive control, and negative control (3 μL each) were spotted on an MHA plate and incubated at 37°C for 24 h. The MBC was determined as the lowest peptide concentration at which no colonies formed.
The MIC and MBC of our designed peptides against A. baumannii were obtained by using the broth microdilution method in the CLSI protocol. The bacterial cell number was carefully counted, and a final cell density of 5 × 10^5 CFU/mL in each well was used in the MIC test (Supplementary Figure 1). The minimal peptide concentration at which no bacterial growth was observed was taken as the MIC value. The culture after peptide treatment was spotted on an MHA plate, and the peptide concentration that could kill all the bacteria was defined as the MBC. The MIC/MBC and hemolytic activity of these peptides are shown and compared in Figure 1.

A further assay deals with HEK293 cells. Type of assay: cell-based, human. The protocol: Cell viability assays were performed by using the CellTiter 96® AQueous Non-Radioactive Cell Proliferation Assay (Promega, United States), in which 3-(4,5-dimethylthiazol-2-yl)-5-(3-carboxymethoxyphenyl)-2-(4-sulfophenyl)-2H-tetrazolium salt (MTS) can be reduced to purple-colored formazan by intact cells. […] The test peptide was dissolved in water and filtered through a 0.2-μm filter. The peptide concentration was quantitated by the UV280 to make a 5,120 μg/mL stock solution and then serially diluted in serum-free DMEM. On the second day, the medium was replaced with 100 μL of serum-free DMEM containing different peptide concentrations and incubated for 1 or 24 h. Serum-free DMEM without peptide was used as a negative control and medium containing 1% Triton X-100 was used as a positive control. One milligram of MTS powder was dissolved in 0.5 mL of Dulbecco’s phosphate-buffered saline (DPBS). The MTS solution was mixed with one-twentieth of a phenazine methosulfate (PMS) solution ([…]). To each well, 20 μL of the MTS/PMS solution was added. After 3 h, the absorbance was measured with an Infinite M1000 pro (Tecan Austria GmbH, Austria) at a wavelength of 490 nm. Cell viability was calculated using the following equation. Cellviability=[(A-Ap)/(An-Ap)]×100% A is the UV490 of the peptide-treated sample An is the UV490 of the sample without peptide (negative control) Ap is the UV490 of the Triton-treated sample (positive control)

The test system of assay [1] is A. baumannii (ATCC 17978). Type of assay: cell-based, Acinetobacter baumannii. Particulars: ex vivo rat blood, 4 μg/mL of each peptide. On the procedure:
The time-kill kinetics measurement against A. baumannii (ATCC 17978) in blood was conducted following a protocol modified from the literature ([Nagarajan et al., 2019]). […] Then, 4 μL of the peptide stock solution to be tested (2,035 μg/mL in water) was added to make the final bacterial cell number 10^7 CFU/mL and the final peptide concentration 4 μg/mL (assigned as tube A). At 2, 4, 6, 8, 10, 20, 30, 40, 50, and 60 min, 100 μL of the bacteria/blood mixture was removed from tube A and mixed with 100 μL of sterilized 2 M NaCl/50% glycerol (twofold dilution, assigned as tube B). […] Ten microliters of the mixture from tube B were mixed with 990 μL of sterilized 1 M NaCl (200-fold dilution, assigned as tube C). Ten microliters of the mixture from tube C was mixed with 90 μL of sterilized 1 M NaCl (2,000-fold dilution, assigned as tube D). Finally, ten or one hundred microliters of solution from each tube was plated on an MHA plate and incubated at 37°C overnight to count the colony number. To test whether freezing in liquid nitrogen kills part of the bacteria, pepdD2 was tested with and without freezing. […] At 0 and 60 min, the bacterial number was measured as described above. […] At the indicated time points, an aliquot of the sample was removed and diluted, and the remaining cell number was counted by plating on MHA plates. The data are expressed as the mean ± SD. […]

The subject of a further assay is A. baumannii 17978. Briefly: Time-kill kinetics assay in MHB. Format: cell-based, Acinetobacter baumannii. Particulars: 37°C with shaking, 4 μg/mL for both peptides. On the procedure:
FIGURE 4 Time-kill kinetics assay. […] This experiment was performed in ex vivo whole rat blood at room temperature without shaking. A. baumannii (final concentration of 10^7 CFU/mL) was incubated with or without peptide (4 μg/mL) for 60 min. At the indicated time points, an aliquot of the sample was removed and diluted, and the remaining cell number was counted by plating on MHA plates. The data are expressed as the mean ± SD. […] A. baumannii (final concentration of 10^7 CFU/mL) was incubated with or without peptide at 37°C with shaking. The peptide concentration was 4 μg/mL for both peptides.

Like-named read-outs stand apart in the source and are kept apart here.

For the substance Ac-WKKIKKIIKKIKKI-NH2 [pepI2], the “MBC A. baumannii 17978” value in the assay on A. baumannii ATCC 17978 was determined as 4 µg/mL. The “HEK293 IC50” value was 68.5 µg/mL with HEK293 cells (1 h) and 66.8 µg/mL in the assay on HEK293 cells (24 h). Moreover, the “Killing rate compared” value in assay [1] was “killed bacteria faster than pepdD2”; with A. baumannii 17978, “killed A. baumannii faster than colistin sulfate”.

These data come from PMC8250858, “A Systematic Study of the Stability, Safety, and Efficacy of the de novo Designed Antimicrobial Peptide PepD2 and Its Modified Derivatives Against Acinetobacter baumannii” (Frontiers in Microbiology, 2021).
